Laboratory results as given in article PMC3681492, “Identification and Characterization of a Novel Chemotype MEK Inhibitor Able to Alter the Phosphorylation State of MEK1/2” (Oncotarget, 2012).

Assays:
Raf kinase = Raf kinase activity, phosphorylation of MBP; conditions: for phosphorylation of the Raf kinase substrate MBP: at concentrations below 10 μM
HT-29 cells [1] = test: Growth inhibition of HT-29 cells by [3H]-TdR incorporation; type: cell-based; conditions: Homo sapiens, [3H]-TdR incorporation during last 6 h of 3-day culture, read-out: growth inhibitory activity (IC50)
Procedure: HT-29 cells were cultured in McCoy's 5a medium supplemented with 10% (v/v) fetal bovine serum and antibiotics. ACHN and HEK293T cells were maintained in Dulbecco's modified Eagle's medium supplemented with 10% (v/v) fetal bovine serum and antibiotics in a humidified CO2 incubator. The growth inhibitory activities of compounds toward HT-29 cells were determined by [^3H]-TdR incorporation for the last 6 h of a 3-day culture period. […] The lysed cells were then homogenized by 20 strokes of a loose-fitting Dounce homogenizer and centrifuged for 6 min at 4,300×g to separate the nuclei from the cytoplasmic fraction. The cytoplasmic fraction was ultracentrifuged for 1 h at 150,000×g and the supernatant was dialyzed against a buffer containing 20 mM HEPES (pH 7.9), 20% (v/v) glycerol, 0.1 M KCl, 0.2 mM EDTA, 0.5 mM PMSF and 0.5 mM DTT for 5 h at 4°C. After centrifugation for 20 min at 15,000×g, the supernatant was collected as the cytosolic fraction.

MEK1/2 = test: Competitive pull-down with JTP-74100-conjugated resin from HT-29 cytosolic fraction; type: binding, human; conditions: 46-kDa band on SDS-PAGE
ACHN cells = test: Western blot of MEK and ERK phosphorylation in ACHN cells; type: cell-based, human; conditions: ACHN cells (K-Ras mutated, B-Raf unmutated), 24 h
Procedure: (§1) Cultured cells were treated with various compounds and then lysed in lysis buffer (50 mM Tris-HCl pH 7.4, 150 mM NaCl, 1 mM EGTA, 1 mM Na3Vo4, 1% Triton X-100 and EDTA-free protease inhibitor cocktail). The cell lysates were collected and centrifuged, and the supernatants were subjected to SDS-PAGE. After the electrophoresis, the proteins were transferred onto PVDF membranes at 1 mA/cm^2 for 1 h. The membranes were incubated in blocking solution (Blockace; Nacalai Tesque, Kyoto, Japan) and washed with PBS containing 0.1% Tween 20 (PBS/T). The membranes were then incubated with the primary antibody, washed three times with PBS/T and incubated with the secondary antibody. After washing with PBS/T, the membranes were incubated with ECL-Plus or ECL-Advanced western blot reagents (GE Healthcare, Little Chalfont, Buckinghamshire, UK) for 5 min, exposed to ECL Hyperfilm and visualized using a LAS3000 imager (Fujifilm).

c-Raf = c-Raf (Homo sapiens, UniProt P04049); test: Raf/MBP kinase assay, c-Raf
Sequence of c-Raf (P04049 306-648): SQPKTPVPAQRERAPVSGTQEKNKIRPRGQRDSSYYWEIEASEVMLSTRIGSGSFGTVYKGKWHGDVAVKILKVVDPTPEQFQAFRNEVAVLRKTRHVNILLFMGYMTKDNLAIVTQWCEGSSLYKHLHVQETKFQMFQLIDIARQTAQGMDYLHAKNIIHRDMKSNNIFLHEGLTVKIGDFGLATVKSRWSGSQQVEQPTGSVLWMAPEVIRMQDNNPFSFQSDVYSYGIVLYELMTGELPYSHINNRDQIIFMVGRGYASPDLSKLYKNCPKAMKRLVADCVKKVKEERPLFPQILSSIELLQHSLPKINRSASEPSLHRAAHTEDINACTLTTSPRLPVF

various cancer cells = test: Western blot of MEK and ERK phosphorylation in various cancer cell lines; type: cell-based; conditions: 2 h
Procedure: as §1

Inactive u-MEK (K97R) = Inactive u-MEK (K97R) (Homo sapiens, UniProt Q02750, K97R); test: Temperature-dependent CD analysis of u-MEK; conditions: 10 μM compound, 3 μM u-MEK; u-MEK alone 50.2 °C
B-Raf = B-Raf (Homo sapiens, UniProt P15056, V600E); test: biochemical
Sequence of B-Raf (P15056 whole entry V600E): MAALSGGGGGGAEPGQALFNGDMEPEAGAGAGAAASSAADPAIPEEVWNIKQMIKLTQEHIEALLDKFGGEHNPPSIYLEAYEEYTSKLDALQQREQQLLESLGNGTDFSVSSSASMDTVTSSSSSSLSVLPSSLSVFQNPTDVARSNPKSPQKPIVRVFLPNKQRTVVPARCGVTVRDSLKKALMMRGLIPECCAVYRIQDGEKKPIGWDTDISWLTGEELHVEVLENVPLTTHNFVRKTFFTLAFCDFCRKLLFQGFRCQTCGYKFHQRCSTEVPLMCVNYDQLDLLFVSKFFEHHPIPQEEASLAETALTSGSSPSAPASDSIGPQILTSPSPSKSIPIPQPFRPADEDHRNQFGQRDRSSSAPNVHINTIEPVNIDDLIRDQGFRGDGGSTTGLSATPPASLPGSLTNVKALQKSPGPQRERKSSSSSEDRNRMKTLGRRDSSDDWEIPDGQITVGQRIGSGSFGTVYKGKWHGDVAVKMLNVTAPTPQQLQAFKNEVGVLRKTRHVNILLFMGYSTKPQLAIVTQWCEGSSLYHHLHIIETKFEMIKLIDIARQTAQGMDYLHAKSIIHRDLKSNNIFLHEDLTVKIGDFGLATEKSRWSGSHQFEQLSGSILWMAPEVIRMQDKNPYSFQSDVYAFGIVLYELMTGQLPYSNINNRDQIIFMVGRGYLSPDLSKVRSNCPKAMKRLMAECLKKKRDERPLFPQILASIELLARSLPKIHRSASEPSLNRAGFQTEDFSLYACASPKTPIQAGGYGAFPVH

HT-29 cells [2] = test: Western blot of MEK and ERK phosphorylation in HT-29 cells; type: cell-based, human; conditions: for MEK phosphorylation status after pulse treatment: 2 h treatment then washout
[3] = system: HT-29 cells and ACHN cells; test: Western blot of downstream signaling molecules (c-Myc, cyclin D1, p15INK4b, p27KIP1); type: cell-based, human; conditions: 24 h treatment
Procedure: as §1
Supplemental Table: Identif ied Peptide Sequences of 46 kDa Proteins.
ACCESSION Start - End Obsrved Mr(expt) Mr(calc) Sequence
Supp lemental Figure: Alterations of downstream signaling molecules in cancer cells by
(A, B) HT-29 cells (A) and ACHN cells (B) were treated with the
indicated concentrations of each compound for 24 h,same as the experiment of F ig u re 3A. And
the cell lysates were analyzed by western blotting using antibodies specific to c-M yc (Upstate […]

[4] = cited from earlier work
[5] = parameters: method as in PMID 22805291; conditions: orally administered, cancer patients, phase I study; cited from earlier work
p-MEK1 = molecular target: T1, p-MEK1 (Homo sapiens, UniProt Q02750); test: Kinetic (double-reciprocal) analysis of MEK inhibition in the MEK-ERK reaction; type: biochemical; conditions: p-MEK-ATP complex, double-reciprocal plots vs ATP
T1 construct: purchased Upstate Technology (Waltham, MA)

Structure (SMILES): CNC(=O)c1cc(Oc2ccc(NC(=O)Nc3ccc(Cl)c(C(F)(F)F)c3)cc2)ccn1 [BAY 43-9006]
- concentration that inhibited Raf kinase activity (Raf kinase; same conditions as Raf/MBP assay, data not shown): 0.1 µM

Structure (SMILES): COc1ccccc1Nc1cc(=O)n(C)c2c1c(=O)n(-c1ccccc1)c(=O)n2-c1ccccc1 [JTP-65634]
- IC50 (HT-29 cells [1]): > 10000 nM
- concentration needed to clearly compete with JTP-74100-immobilized resin for binding to MEK (MEK1/2): > 100 µM

Structure (SMILES): Cn1c(=O)cc(Nc2ccc(I)cc2F)c2c(=O)n(C3CC3)c(=O)n(-c3cccc(NS(C)(=O)=O)c3)c21 [JTP-70945]
- IC50 (HT-29 cells [1]): 0.39 nM
- concentration needed to clearly compete with JTP-74100-immobilized resin for binding to MEK (MEK1/2): above 10 μM

Structure (SMILES): CC(=O)Nc1cccc(-n2c(=O)n(C3CC3)c(=O)c3c(Nc4ccc(I)cc4F)n(C)c(=O)c(C)c32)c1 [JTP-74057]
- accumulation of p-MEK (ACHN cells): did not significantly, or slightly if any, induce accumulation of p-MEK
- IC50 (c-Raf): > 10000 nM
- IC50 (HT-29 cells [1]): 0.57 nM
- phosphorylation of the Raf kinase substrate MBP (Raf kinase): not inhibited
- p-MEK levels in HCT-15, LS-174T, T84 and LoVo cells (various cancer cells; 100 nM): did not decrease or decrease to a lesser extent
- p-MEK levels in HT-29, COLO-205, HCT-116, SW480 and SW620 cells (various cancer cells; 100 nM (HT-29 10 nM)): decreased
- ERK phosphorylation in various cancer cell lines (various cancer cells; 100 nM (HT-29 10 nM), 10 cell lines): efficiently inhibited in almost all cell lines, except for COLO-320DM
- Tm of u-MEK with compound (CD) (Inactive u-MEK (K97R)): 57.5 °C
- IC50 (B-Raf): > 10000 nM
- time at which p-MEK level was decreased (HT-29 cells [2]; 10 nM): ≤ 15 min
- time at which p-MEK was almost ablated (HT-29 cells [2]; 10 nM): 30 min
- MEK phosphorylation status after pulse treatment (HT-29 cells [2]): disappearance of p-MEK was sustained for a considerable period
- ERK phosphorylation (HT-29 cells [2]; 24 h): inhibited ERK phosphorylation
- p-MEK level (HT-29 cells [2]; 24 h): decreased the p-MEK level
- concentration at which accumulation of p15INK4b and p27KIP1 and decrease of c-Myc and Cyclin D1 were observed [3]: 1 nM
- ERK phosphorylation in grafted cancer tissues ([4]; animals, after oral administration): inhibited ERK phosphorylation
- half-life in the blood ([4]; in vivo, po): long half-life
- t1/2 [5]: about 4 days
- Ki' (MEK/ATP vs. compound) (p-MEK1): 290 ± 80 nM

Structure (SMILES): O=C(NOC[C@H](O)CO)c1ccc(F)c(F)c1Nc1ccc(I)cc1F [PD0325901, reference compound]
- accumulation of p-MEK (ACHN cells): induced significant accumulation of p-MEK
- IC50 (HT-29 cells [1]): 3.4 nM
- phosphorylation of the Raf kinase substrate MBP (Raf kinase): not inhibited
- time for p-ERK level to return to nearly normal level after removal (HT-29 cells [2]; 100 nM for 2 h then washout): ≤ 1 h
- MEK phosphorylation status after pulse treatment (HT-29 cells [2]): did not affect the MEK phosphorylation status
- ERK phosphorylation (HT-29 cells [2]; 24 h): inhibited ERK phosphorylation
- concentration at which accumulation of p15INK4b and p27KIP1 and decrease of c-Myc and Cyclin D1 were observed [3]: 10 nM

Structure (SMILES): N#CC(=C(/N)Sc1ccccc1N)/C(C#N)=C(\N)Sc1ccccc1N [U0126, reference compound]
- concentration needed to clearly compete with JTP-74100-immobilized resin for binding to MEK (MEK1/2): 100 µM

Structure (SMILES): CCCCC(=O)NCCC(=O)Nc1cccc(-n2c(=O)n(C3CC3)c(=O)c3c(Nc4ccccc4F)n(C)c(=O)c(C)c32)c1 [pentanoyl JTP-74099]
- IC50 (HT-29 cells [1]): 840 nM

Structure (SMILES): CCCCC(=O)NCCC(=O)Nc1cccc(-n2c(=O)n(C3CC3)c(=O)c3c(Nc4ccc(I)cc4F)n(C)c(=O)c(C)c32)c1 [pentanoyl JTP-74100]
- IC50 (HT-29 cells [1]): 2.1 nM
